Series [1] is described as follows: Clinical cohort: inflammatory markers and cytokines in peripheral blood and CSF of HIV patients on lenalidomide. Format: in vivo, human. Here is the method:
HIV patients with CM after antiretroviral therapy (ART) were recruited. […] Lenalidomide (25 mg) was orally administered at days 1 to 21 in a 28-day cycle, and ART was continued for 48 weeks. The participants were followed up at 7 points (base line 0w, 4w, 8w, 12w, 24w, 36w, and 48w). Inflammatory cytokines in CSF and peripheral blood were detected at each follow-up point, and PBMCs were extracted from the patients and detected for indicators of HIV reservoir.

The subject of series [2] is HIV reservoir. As to the kind of experiment: Clinical cohort: indicators of HIV reservoir (CA HIV RNA) in PBMCs extracted from patients. It is filed as in vivo, human. How it is done:
HIV patients with CM after antiretroviral therapy (ART) were recruited. These participants had central damage after receiving standard anti-fungal therapy, elevated cerebrospinal fluid (CSF) protein level, age of 18 years or more, and plasma HIV RNA of <50 copies/ml and CD4 T cell count of >100 cells/mm3 after receiving ART for at least 48 weeks. Lenalidomide (25 mg) was orally administered at days 1 to 21 in a 28-day cycle, and ART was continued for 48 weeks. The participants were followed up at 7 points (base line 0w, 4w, 8w, 12w, 24w, 36w, and 48w). Inflammatory cytokines in CSF and peripheral blood were detected at each follow-up point, and PBMCs were extracted from the patients and detected for indicators of HIV reservoir. […] For CA HIV-RNA, lenalidomide has a great influence. […] The subjects Nos. 110 and 113 have a decline that exceeds 2 log order of magnitude.

Series [3] concerns U1 cells. The experiment in a line: CCK8 survival rate of U1 cells. Format: cell-based. Conditions: lenalidomide 0.5, 1, 2, 5, 10, and 20 μmol/L, 24 hrs. Here is the method:
CCK8 was used to evaluate the safety of lenalidomide when U1 cells were treated with it in vitro. After U1 cells were treated with various concentrations of lenalidomide (0.5, 1, 2, 5, 10, and 20 μmol/L) for 24 hrs, the survival rate of U1 cells was detected by CCK8 kit. […] There is no significant difference between the control group and various concentration groups and between the various concentration groups. Lenalidomide has a high safety when acting on latent cell lines in vitro.

In series [4] the test system is latent HIV cell line U1. The experiment in a line: P24 ELISA in supernatant of U1 cells stimulated with latent activator. It is filed as cell-based. Conditions: pretreated 1, 2, and 5 μmol/L lenalidomide 24 hrs. How it is done:
U1 cells were pretreated with various concentrations of lenalidomide (1, 2, and 5 μmol/L) for 24 hrs, and then the U1 cells pre-treated with lenalidomide were stimulated with a latent activator (TNF-a, PMA, or LPS). The U1 cells in the negative control group were cultured alone, and the U1 cells in the positive control group were not pretreated with lenalidomide. The activation of P24 protein in the supernatant of latent cells U1 was detected by ELISA. […] Compared with the positive control group, the P24 contents decline in the supernatants of the three experimental groups pretreated with 1, 2, and 5 μmol/L lenalidomide, and the difference is statistically significant (P=0.0029, 0.0019, and 0.0017, B in FIG. 3). The difference between various concentrations of lenalidomide groups is not obvious. (2) In the experiment where TNF-α of 20 μg/ml is used as the latent activator, similar results are observed. […] (3) The study of endotoxin (LPS, 10 μg/ml) as a latent activator is rare.
On the technique in general: In an ELISA, binding on a coated surface is turned into a signal by an enzyme label.

Series [5] concerns HIV-1 latent cell line U1. The experiment in a line: Viral mRNA expression in U1 cells activated with LPS. The conditions noted are these: lenalidomide 2 μmol/L pretreatment 24 hrs. Format: cell-based. How it is done:
After the HIV-1 latent cell line is activated by activator, the expression of viral mRNA in the cells is increased, causing the production of virions. […] The U1 cells were divided into three groups. The negative control group was added with the same amount of culture medium. In the positive control group, cells were pretreated with the culture medium, and LPS was added as an activator after 24 hrs. In the experimental group, lenalidomide (2 μmol/L) was added to pretreat the cells for 24 hrs and then LPS was added to activate the cells. […] (2) The expression levels of multi-spliced RNA, single-spliced RNA and non-spliced RNA in U1 were also detected.

Series [6] deals with HIV-1 primary cell CD8-PBMCs. The experiment in a line: Virus reactivation in HIV-1 primary cells CD8-PBMCs (intracellular P24 by flow cytometry, CA HIV RNA by RT-PCR). It is filed as cell-based, human. Here is the method:
Lenalidomide is confirmed to inhibit the transcription of virus in HIV-1 latent cell line, and whether it has the same effect in HIV primary cells is unknown. CD8-PBMCs were divided into an experimental group and a positive control group and treated with or without lenalidomide for 5 days. Both groups were supplemented with LPS irregularly. In the negative control group, the same amount of DMSO was added for control culture throughout the whole process. After 5 days, the cells were broken, and the difference in expression of intracellular P24 protein in CD8-PBMCs was detected by flow cytometry. As shown in A in FIG. 5, in the positive control group, the intracellular HIV-1 core P24 in CD8-PBMCs reaches 9.76% after the continuous action of activator. […] The differences in the expression of CA HIV RNA in the five samples were also detected.

The subject of series [7] is PBMCs derived from HIV-1 patients. As to the kind of experiment: Cytokines in supernatant of PBMCs from HIV-1 patients (cytometric bead array). It is filed as cell-based, human. The conditions noted are these: PBMCs co-cultured with lenalidomide 24 hrs vs control group. Here is the method:
The in-vitro regulatory effect of lenalidomide was verified as follows. PBMCs were separated from peripheral blood donated by HIV-1 patients, and divided into a control group and an experimental group. The control group was cultured alone, and the experimental group was co-cultured with lenalidomide. After 24 hrs, the supernatant was taken for cytokine detection. The level of cytokines in the supernatant was measured by a cytometric bead array kit.

Series [8] relates to J-lat10.6 cells. The experiment in a line: GFP activation of J-lat10.6 cells by supernatant of PBMCs treated with lenalidomide. It is filed as cell-based. Conditions: supernatant added with lenalidomide; control supernatant activates GFP by 51.7%. The text has this: (§1) Lenalidomide has a powerful immunomodulatory effect, and can inhibit the release of pro-inflammatory cytokines in PBMCs derived from HIV patients in vitro and promote the secretion of anti-inflammatory cytokine IL-10. However, whether this degree of immunomodulation can inhibit HIV replication was not confirmed. The latent cell lines J-lat10.6 and C11 cells were used for the experiment. The supernatants of the experimental group and control group were used to stimulate J-lat10.6 and C11 cells, respectively. […] Lenalidomide can regulate the release of inflammatory cytokines in PBMCs from HIV-1 patients in vitro, and this bypass pathway can inhibit virus reactivation in HIV-1 latent cell lines.

The test system of series [9] is C11 cells. The experiment in a line: GFP activation of C11 cells by supernatant of PBMCs treated with lenalidomide. The conditions noted are these: supernatant of lenalidomide group; control group 23.17%. Format: cell-based.
Excerpt: as §1

The mark [10] stands for this setting: peripheral blood, after lenalidomide treatment.

As to `Nc1cccc2c1CN(C1CCC(=O)NC1=O)C2=O` (stereo not drawn) [lenalidomide], in [1] (CSF), the “IL-6 level in CSF” value is reported as “significantly reduces” and the “TNF-a level in CSF” value is on record as “significantly reduces”. Besides, in series [1] (setting [10]), the IL-6 entry is “decrease significantly” and the TNF-a result was “decrease significantly”. Besides, the “CRP of HIV subjects” value in series [1] (peripheral blood, lenalidomide 25 mg oral days 1 to 21 of 28-day cycle, after 7 weeks) is “decrease”. The “D-dimer of HIV subjects” value in series [1] (peripheral blood, lenalidomide 25 mg oral days 1 to 21 of 28-day cycle, after 12 weeks) is “decrease”. Besides, the “CA HIV-RNA” value in series [2] (13 patients, from the 24th week, more obvious at the 48th week) is given as “declines obviously”. For the same compound, the “decline of CA RNA” value in series [2] (subjects Nos. 110 and 113) was “exceeds 2 log order of magnitude”. Besides, the “survival rate of U1 cells” value in [3] was “less affected”. Further, in series [4] (LPS 10 μg/ml), the “P24 content in supernatant vs positive control group” value was “significantly lower”. The “P24 content in supernatant vs positive control group” value in [4] (PMA 20 nmol/L 24 hrs) is “decline”. For the same compound, the “P24 content in supernatant vs positive control group” value in series [4] (TNF-α 20 μg/ml) is given as “significantly lower”. Moreover, in [5] (then LPS), the “expression level of multi-spliced RNA” value is on record as “significantly inhibits”, the “expression level of non-spliced RNA” value is “significantly inhibits” and the “expression level of single-spliced RNA” value is reported as “significantly inhibits”. For the same compound, in series [5] (then LPS 10 μg/ml 24 hrs), the “mRNA level of Gag” value was “basically inhibited” and the “mRNA level of Rev protein” value is “basically inhibited”. In series [6] (5 days with lenalidomide and LPS, positive control 9.76%, DMSO control 0.73%), the “expression of intracellular antigen P24” value is given as 4.15%. Moreover, the “decrease of average amount of CA HIV-1 RNA vs positive control group” value in [6] (five samples, RT-PCR) was 0.49 time. In series [7], the IL-6 in supernatant result is “decrease significantly”, the IL-10 in supernatant result was “increases significantly” and the TNF-α in supernatant entry is “decrease significantly”. Moreover, the “J-lat10.6 GFP” value in [8] was determined as 24.21%. Further, the “GFP activation of C11 cells” value in series [9] was determined as 8.09%.

These data come from patent US20240207241A1, “Method for Promoting Functional Cure of AIDS by Reducing HIV Reservoir with Lenalidomide” (priority 2022, published 2024).
